Data published in ChEMBL document CHEMBL1201862, “PubChem BioAssay data set” (2004).
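Cells were grown in 96-well plates and exposed to each compound for 48 hours at five concentrations; endpoints were interpolated linearly between bracketing concentrations, or set to the highest concentration if not reached. GI50: concentration for 50% inhibition of growth.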 Activity calls are given as the source filed them. Cut-off read from the data, not from the text of the source: active = GI50 up to about 1.1 µM and inactive = higher.

Columns and labels:
Experiment in all cases: DTP human tumour cell line panel, 48 h
SNB-75 = test system: SNB-75
RPMI-8226 = test system: RPMI-8226
SR = test system: SR
HT-29 = test system: HT-29
NCI-H23 = test system: NCI-H23
786-0 = test system: 786-0
COLO 205 = test system: COLO 205
MDA-MB-231 = test system: MDA-MB-231
NCI-H522 = test system: NCI-H522
SF-539 = test system: SF-539
T47D = test system: T47D
SN12C = test system: SN12C
TK-10 = test system: TK-10
UO-31 = test system: UO-31
SF-295 = test system: SF-295
RXF 393 = test system: RXF 393
BT-549 = test system: BT-549
SF-268 = test system: SF-268
MCF7 = test system: MCF7
SW-620 = test system: SW-620
Malme-3M = test system: Malme-3M
KM12 = test system: KM12
NCI-H460 = test system: NCI-H460
HCT-15 = test system: HCT-15
U-251 = test system: U-251
HL-60 = test system: HL-60
SK-MEL-2 = test system: SK-MEL-2
OVCAR-8 = test system: OVCAR-8
CCRF-CEM = test system: CCRF-CEM
UACC-257 = test system: UACC-257
A549 = test system: A549
ACHN = test system: ACHN
HOP-62 = test system: HOP-62
LOX IMVI = test system: LOX IMVI
HCC 2998 = test system: HCC 2998
CAKI-1 = test system: CAKI-1
SNB-19 = test system: SNB-19
NCI/ADR-RES = test system: NCI/ADR-RES
DU-145 = test system: DU-145
MDA-MB-435 = test system: MDA-MB-435
SK-MEL-28 = test system: SK-MEL-28
K562 = test system: K562
OVCAR-5 = test system: OVCAR-5
SK-OV-3 = test system: SK-OV-3
IGROV-1 = test system: IGROV-1
MDA-N = test system: MDA-N
UACC-62 = test system: UACC-62
HCT-116 = test system: HCT-116
NCI-H226 = test system: NCI-H226
SK-MEL-5 = test system: SK-MEL-5
Hs-578T = test system: Hs-578T
PC-3 = test system: PC-3
A498 = test system: A498
MOLT-4 = test system: MOLT-4
OVCAR-3 = test system: OVCAR-3
OVCAR-4 = test system: OVCAR-4
M14 = test system: M14
HOP-92 = test system: HOP-92
EKVX = test system: EKVX

CCCCCCCCOC1C(O)C(O)C(O)C(O)C12CO2 (stereo unspecified)
GI50 (SNB-75): 32 µM (inactive) | GI50 (RPMI-8226): 50.2 µM (inactive) | GI50 (SR): 48.4 µM (inactive) | GI50 (HT-29): 49.5 µM (inactive) | GI50 (NCI-H23): 16.1 µM (inactive) | GI50 (786-0): 73.8 µM (inactive) | GI50 (COLO 205): > 100 µM (inactive) | GI50 (MDA-MB-231): 39.8 µM (inactive) | GI50 (NCI-H522): 26.7 µM (inactive) | GI50 (SF-539): > 100 µM (inactive) | GI50 (T47D): 63.2 µM (inactive) | GI50 (SN12C): 51.2 µM (inactive) | GI50 (TK-10): > 100 µM (inactive) | GI50 (UO-31): 78 µM (inactive) | GI50 (SF-295): 43.8 µM (inactive) | GI50 (RXF 393): 29 µM (inactive) | GI50 (BT-549): 37.6 µM (inactive) | GI50 (SF-268): 64.4 µM (inactive) | GI50 (MCF7): 46.5 µM (inactive) | GI50 (SW-620): 45.4 µM (inactive) | GI50 (Malme-3M): 57.5 µM (inactive) | GI50 (KM12): 43.9 µM (inactive) | GI50 (NCI-H460): 45.4 µM (inactive) | GI50 (HCT-15): 50.4 µM | GI50 (U-251): 41.9 µM (inactive) | GI50 (HL-60): 42 µM (inactive) | GI50 (SK-MEL-2): 53.8 µM (inactive) | GI50 (OVCAR-8): 62.7 µM (inactive) | GI50 (CCRF-CEM): 28.3 µM (inactive) | GI50 (UACC-257): > 100 µM (inactive) | GI50 (A549): 49.5 µM (inactive) | GI50 (ACHN): 53.8 µM (inactive) | GI50 (HOP-62): 44.6 µM (inactive) | GI50 (LOX IMVI): 48.4 µM (inactive) | GI50 (HCC 2998): 68.5 µM (inactive) | GI50 (CAKI-1): 90.4 µM (inactive) | GI50 (SNB-19): 91.4 µM (inactive) | GI50 (NCI/ADR-RES): 40.5 µM (inactive) | GI50 (DU-145): 76.6 µM (inactive) | GI50 (MDA-MB-435): 29.8 µM (inactive) | GI50 (SK-MEL-28): > 100 µM (inactive) | GI50 (K562): 38.5 µM (inactive) | GI50 (OVCAR-5): > 10 µM (inactive) | GI50 (SK-OV-3): 38.3 µM (inactive) | GI50 (IGROV-1): 75.5 µM (inactive) | GI50 (MDA-N): 32.4 µM (inactive) | GI50 (UACC-62): 83.4 µM (inactive) | GI50 (HCT-116): 41 µM (inactive) | GI50 (NCI-H226): 86.1 µM (inactive) | GI50 (SK-MEL-5): > 10 µM (inactive) | GI50 (Hs-578T): 54.5 µM (inactive) | GI50 (PC-3): 55.3 µM (inactive) | GI50 (A498): > 100 µM (inactive) | GI50 (MOLT-4): 38.9 µM (inactive) | GI50 (OVCAR-3): 50.4 µM (inactive)

O=C1c2ccccc2C(=O)c2[nH]c(=O)c(/C=N/Nc3ccc([N+](=O)[O-])cc3)nc21
GI50 (RPMI-8226): > 37 µM (inactive) | GI50 (SR): 17.5 µM (inactive) | GI50 (HT-29): 2.59 µM (inactive) | GI50 (NCI-H23): 1.63 µM (inactive) | GI50 (786-0): 15.9 µM (inactive) | GI50 (COLO 205): 7.98 µM (inactive) | GI50 (MDA-MB-231): 11.3 µM (inactive) | GI50 (NCI-H522): 3.23 µM (inactive) | GI50 (SF-539): 5.93 µM (inactive) | GI50 (T47D): > 47.2 µM (inactive) | GI50 (SN12C): 11.9 µM (inactive) | GI50 (TK-10): 16.1 µM (inactive) | GI50 (UO-31): 6.58 µM (inactive) | GI50 (OVCAR-4): 18.4 µM (inactive) | GI50 (SF-295): 3.32 µM (inactive) | GI50 (M14): 2.01 µM (inactive) | GI50 (RXF 393): 6.04 µM (inactive) | GI50 (BT-549): 5.08 µM (inactive) | GI50 (SF-268): 8.59 µM (inactive) | GI50 (MCF7): 9.38 µM (inactive) | GI50 (SW-620): 12.1 µM (inactive) | GI50 (HOP-92): 15.2 µM (inactive) | GI50 (Malme-3M): 1.21 µM (inactive) | GI50 (KM12): 5.73 µM (inactive) | GI50 (NCI-H460): 2.06 µM (inactive) | GI50 (HCT-15): 3.67 µM | GI50 (U-251): 7.24 µM (inactive) | GI50 (HL-60): 8.79 µM (inactive) | GI50 (SK-MEL-2): 3.86 µM (inactive) | GI50 (OVCAR-8): 15.8 µM (inactive) | GI50 (CCRF-CEM): > 35.5 µM (inactive) | GI50 (UACC-257): 2.15 µM (inactive) | GI50 (A549): 3.52 µM (inactive) | GI50 (EKVX): 24.1 µM (inactive) | GI50 (ACHN): 13.2 µM (inactive) | GI50 (HOP-62): 2.28 µM (inactive) | GI50 (LOX IMVI): 3.56 µM (inactive) | GI50 (HCC 2998): 1.61 µM (inactive) | GI50 (CAKI-1): 17.3 µM (inactive) | GI50 (SNB-19): 15.9 µM (inactive) | GI50 (NCI/ADR-RES): 19.1 µM (inactive) | GI50 (DU-145): 1.81 µM (inactive) | GI50 (MDA-MB-435): 1.8 µM (inactive) | GI50 (SK-MEL-28): 5.47 µM (inactive) | GI50 (K562): > 43.6 µM (inactive) | GI50 (OVCAR-5): 31.6 µM (inactive) | GI50 (SK-OV-3): 9.73 µM (inactive) | GI50 (IGROV-1): 14.4 µM (inactive) | GI50 (MDA-N): 1.75 µM (inactive) | GI50 (UACC-62): 2.09 µM (inactive) | GI50 (HCT-116): 19.8 µM (inactive) | GI50 (NCI-H226): 1.51 µM (inactive) | GI50 (SK-MEL-5): 1.62 µM (inactive) | GI50 (Hs-578T): 3.22 µM (inactive) | GI50 (PC-3): 17.1 µM (inactive) | GI50 (A498): 4.67 µM (inactive) | GI50 (MOLT-4): 22.9 µM (inactive) | GI50 (OVCAR-3): 2.92 µM (inactive)

O=c1ccc2ccc(OP(=O)(O)O)cc2o1
GI50 (SNB-75): > 100 µM (inactive) | GI50 (RPMI-8226): > 100 µM (inactive) | GI50 (SR): > 100 µM (inactive) | GI50 (HT-29): > 100 µM (inactive) | GI50 (NCI-H23): > 100 µM (inactive) | GI50 (786-0): > 100 µM (inactive) | GI50 (COLO 205): > 100 µM (inactive) | GI50 (MDA-MB-231): > 100 µM (inactive) | GI50 (NCI-H522): > 100 µM (inactive) | GI50 (SF-539): > 100 µM (inactive) | GI50 (T47D): > 100 µM (inactive) | GI50 (SN12C): > 100 µM (inactive) | GI50 (TK-10): > 100 µM (inactive) | GI50 (UO-31): > 100 µM (inactive) | GI50 (OVCAR-4): > 100 µM (inactive) | GI50 (SF-295): > 100 µM (inactive) | GI50 (M14): > 100 µM (inactive) | GI50 (RXF 393): > 100 µM (inactive) | GI50 (BT-549): > 100 µM (inactive) | GI50 (SF-268): > 100 µM (inactive) | GI50 (MCF7): > 100 µM (inactive) | GI50 (SW-620): > 100 µM (inactive) | GI50 (Malme-3M): > 100 µM (inactive) | GI50 (KM12): > 100 µM (inactive) | GI50 (NCI-H460): > 100 µM (inactive) | GI50 (HCT-15): > 100 µM | GI50 (U-251): > 100 µM (inactive) | GI50 (HL-60): > 100 µM (inactive) | GI50 (SK-MEL-2): > 100 µM (inactive) | GI50 (OVCAR-8): > 100 µM (inactive) | GI50 (CCRF-CEM): > 100 µM (inactive) | GI50 (UACC-257): > 100 µM (inactive) | GI50 (A549): > 100 µM (inactive) | GI50 (EKVX): > 100 µM (inactive) | GI50 (ACHN): > 100 µM (inactive) | GI50 (HOP-62): > 100 µM (inactive) | GI50 (LOX IMVI): > 100 µM (inactive) | GI50 (HCC 2998): > 100 µM (inactive) | GI50 (CAKI-1): > 100 µM (inactive) | GI50 (SNB-19): > 100 µM (inactive) | GI50 (NCI/ADR-RES): > 100 µM (inactive) | GI50 (DU-145): 93.1 µM (inactive) | GI50 (MDA-MB-435): > 100 µM (inactive) | GI50 (SK-MEL-28): > 100 µM (inactive) | GI50 (K562): > 100 µM (inactive) | GI50 (OVCAR-5): > 100 µM (inactive) | GI50 (SK-OV-3): > 100 µM (inactive) | GI50 (IGROV-1): > 100 µM (inactive) | GI50 (MDA-N): > 100 µM (inactive) | GI50 (UACC-62): > 100 µM (inactive) | GI50 (HCT-116): > 100 µM (inactive) | GI50 (NCI-H226): > 100 µM (inactive) | GI50 (SK-MEL-5): > 100 µM (inactive) | GI50 (Hs-578T): > 100 µM (inactive) | GI50 (PC-3): > 100 µM (inactive) | GI50 (A498): > 100 µM (inactive) | GI50 (MOLT-4): > 100 µM (inactive) | GI50 (OVCAR-3): > 100 µM (inactive)
